Experiments:
Carbonic anhydrase 1 = Carbonic anhydrase 1 (Homo sapiens, UniProt P00915)
Description: Inhibitory activity against human recombinant carbonic anhydrase I (CA1)

Carbonic anhydrase 2 = Carbonic anhydrase 2 (Homo sapiens, UniProt P00918)
Description: Inhibitory activity against human recombinant carbonic anhydrase II (CA2)

Carbonic anhydrase 4 = molecular target: T1, Carbonic anhydrase 4 (Bos taurus, UniProt Q95323)
T1 sequence (Q95323 whole entry): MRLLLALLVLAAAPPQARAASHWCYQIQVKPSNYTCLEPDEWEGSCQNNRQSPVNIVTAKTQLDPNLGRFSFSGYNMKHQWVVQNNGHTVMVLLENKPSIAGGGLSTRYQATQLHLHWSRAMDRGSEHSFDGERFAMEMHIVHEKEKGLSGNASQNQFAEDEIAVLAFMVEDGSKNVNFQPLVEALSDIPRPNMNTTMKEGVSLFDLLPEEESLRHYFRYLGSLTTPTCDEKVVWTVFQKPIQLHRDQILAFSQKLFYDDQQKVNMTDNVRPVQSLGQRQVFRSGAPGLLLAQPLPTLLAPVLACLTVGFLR
Description: Inhibitory activity against bovine carbonic anhydrase IV (CA4), obtained from bovine lung microsomes

Sequence of Carbonic anhydrase 1 (P00915 whole entry): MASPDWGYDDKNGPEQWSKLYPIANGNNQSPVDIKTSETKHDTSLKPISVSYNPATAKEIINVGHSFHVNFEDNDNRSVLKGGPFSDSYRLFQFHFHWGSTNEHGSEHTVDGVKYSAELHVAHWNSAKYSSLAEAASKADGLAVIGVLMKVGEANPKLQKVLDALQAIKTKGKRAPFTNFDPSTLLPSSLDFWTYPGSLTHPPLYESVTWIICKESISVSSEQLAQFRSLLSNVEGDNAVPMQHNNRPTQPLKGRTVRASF

Row | SMILES | Ki (Carbonic anhydrase 1) [nM] | Ki (Carbonic anhydrase 2) [nM] | Ki (Carbonic anhydrase 4) [nM]
1 | C[C@H](CCC(=O)NCCc1ccc(S(N)(=O)=O)cc1)[C@H]1CC[C@H]2[C@@H]3C(=O)C[C@@H]4CC(=O)CC[C@]4(C)[C@H]3CC(=O)[C@]12C | 285 | 18 | 29
2 | C[C@H](CCC(=O)NCCC(=O)Nc1nnc(S(N)(=O)=O)s1)[C@H]1CC[C@H]2[C@@H]3CC[C@@H]4C[C@H](O)CC[C@]4(C)[C@H]3CC[C@]12C | 200 | 2.1 | 19
3 | C[C@H](CCC(=O)Nc1cccc(S(N)(=O)=O)c1)[C@H]1CC[C@H]2[C@@H]3[C@H](O)C[C@@H]4C[C@H](O)CC[C@]4(C)[C@H]3CC[C@]12C | 21400 | 210 | 1250
4 | C[C@H](CCC(=O)OCc1ccc(S(N)(=O)=O)cc1)[C@H]1CC[C@H]2[C@@H]3[C@H](O)C[C@@H]4C[C@H](O)CC[C@]4(C)[C@H]3C[C@H](O)[C@]12C | 1200 | 97 | 280
5 | C[C@H](CCC(=O)Nc1ccccc1S(N)(=O)=O)[C@H]1CC[C@H]2[C@@H]3[C@H](O)C[C@@H]4C[C@H](O)CC[C@]4(C)[C@H]3CC[C@]12C | 22100 | 245 | 900
6 | C[C@H](CCC(=O)OCCOc1ccc2nc(S(N)(=O)=O)sc2c1)[C@H]1CC[C@H]2[C@@H]3[C@H](O)C[C@@H]4C[C@H](O)CC[C@]4(C)[C@H]3CC[C@]12C | 44 | 5.2 | 9
7 | C[C@H](CCC(=O)Nc1ccc(S(N)(=O)=O)cc1F)[C@H]1CC[C@H]2[C@@H]3CC[C@@H]4C[C@H](O)CC[C@]4(C)[C@H]3C[C@H](O)[C@]12C | 780 | 42 | 96
8 | C[C@H](CCC(=O)Nc1nnc(S(N)(=O)=O)s1)[C@H]1CC[C@H]2[C@@H]3CC[C@@H]4C[C@H](O)CC[C@]4(C)[C@H]3C[C@H](O)[C@]12C | 200 | 50 | 130
9 | C[C@H](CCC(=O)NNc1ccc(S(N)(=O)=O)cc1)[C@H]1CC[C@H]2[C@@H]3[C@H](O)C[C@@H]4C[C@H](O)CC[C@]4(C)[C@H]3CC[C@]12C | 27500 | 295 | 850
10 | C[C@H](CCC(=O)/N=c1\sc(S(N)(=O)=O)nn1C)[C@H]1CC[C@H]2[C@@H]3CC[C@@H]4C[C@H](O)CC[C@]4(C)[C@H]3CC[C@]12C | 205 | 8 | 21
11 | C[C@H](CCC(=O)Oc1ccc2nc(S(N)(=O)=O)sc2c1)[C@H]1CC[C@H]2[C@@H]3[C@H](O)C[C@@H]4C[C@H](O)CC[C@]4(C)[C@H]3C[C@H](O)[C@]12C | 32 | 4 | 9
12 | C[C@H](CCC(=O)Nc1ccc(S(N)(=O)=O)cc1F)[C@H]1CC[C@H]2[C@@H]3[C@@H](O)C[C@@H]4C[C@H](O)CC[C@]4(C)[C@H]3CC[C@]12C | 180 | 11 | 24
13 | C[C@H](CCC(=O)Nc1ccc(S(N)(=O)=O)cc1Cl)[C@H]1CC[C@H]2[C@@H]3C(=O)C[C@@H]4CC(=O)CC[C@]4(C)[C@H]3CC(=O)[C@]12C | 200 | 13 | 30
14 | C[C@H](CCC(=O)NCc1ccc(S(N)(=O)=O)cc1)[C@H]1CC[C@H]2[C@@H]3CC[C@@H]4C[C@H](O)CC[C@]4(C)[C@H]3C[C@H](O)[C@]12C | 1710 | 80 | 233
15 | C[C@H](CCC(=O)Oc1ccc2nc(S(N)(=O)=O)sc2c1)[C@H]1CC[C@H]2[C@@H]3CC[C@@H]4C[C@H](O)CC[C@]4(C)[C@H]3C[C@H](O)[C@]12C | 39 | 4.8 | 9
16 | C[C@H](CCC(=O)Nc1ccc(S(N)(=O)=O)cc1Br)[C@H]1CC[C@H]2[C@@H]3[C@@H](O)C[C@@H]4C[C@H](O)CC[C@]4(C)[C@H]3CC[C@]12C | 91 | 10 | 23
17 | C[C@H](CCC(=O)OCc1ccc(S(N)(=O)=O)cc1)[C@H]1CC[C@H]2[C@@H]3[C@@H](O)C[C@@H]4C[C@H](O)CC[C@]4(C)[C@H]3CC[C@]12C | 500 | 75 | 245
18 | C[C@H](CCC(=O)Nc1cc(Cl)c(S(N)(=O)=O)cc1S(N)(=O)=O)[C@H]1CC[C@H]2[C@@H]3[C@@H](O)C[C@@H]4C[C@H](O)CC[C@]4(C)[C@H]3CC[C@]12C | 71 | 9 | 46
19 | C[C@H](CCC(=O)NCc1ccc(S(N)(=O)=O)cc1)[C@H]1CC[C@H]2[C@@H]3C(=O)C[C@@H]4CC(=O)CC[C@]4(C)[C@H]3CC(=O)[C@]12C | 600 | 26 | 40
20 | C[C@H](CCC(=O)NNc1ccc(S(N)(=O)=O)cc1)[C@H]1CC[C@H]2[C@@H]3CC[C@@H]4C[C@H](O)CC[C@]4(C)[C@H]3CC[C@]12C | 15000 | 280 | 650
21 | C[C@H](CCC(=O)OCc1ccc(S(N)(=O)=O)cc1)[C@H]1CC[C@H]2[C@@H]3[C@H](O)C[C@@H]4C[C@H](O)CC[C@]4(C)[C@H]3CC[C@]12C | 1230 | 98 | 340
22 | C[C@H](CCC(=O)Nc1cc(Cl)c(S(N)(=O)=O)cc1S(N)(=O)=O)[C@H]1CC[C@H]2[C@@H]3C(=O)C[C@@H]4CC(=O)CC[C@]4(C)[C@H]3CC(=O)[C@]12C | 77 | 11 | 50
23 | C[C@H](CCC(=O)NNc1ccc(S(N)(=O)=O)cc1)[C@H]1CC[C@H]2[C@@H]3CC[C@@H]4C[C@H](O)CC[C@]4(C)[C@H]3C[C@H](O)[C@]12C | 21300 | 310 | 920
24 | C[C@H](CCC(=O)Nc1ccccc1S(N)(=O)=O)[C@H]1CC[C@H]2[C@@H]3C(=O)C[C@@H]4CC(=O)CC[C@]4(C)[C@H]3CC(=O)[C@]12C | 8100 | 170 | 505
25 | C[C@H](CCC(=O)Nc1c(S(N)(=O)=O)cc(S(N)(=O)=O)c(Cl)c1Cl)[C@H]1CC[C@H]2[C@@H]3CC[C@@H]4C[C@H](O)CC[C@]4(C)[C@H]3CC[C@]12C | 130 | 17 | 87
26 | C[C@H](CCC(=O)Nc1ccc(S(N)(=O)=O)cc1)[C@H]1CC[C@H]2[C@@H]3[C@@H](O)C[C@@H]4C[C@H](O)CC[C@]4(C)[C@H]3CC[C@]12C | 4000 | 71 | 164
27 | C[C@H](CCC(=O)Oc1ccc2nc(S(N)(=O)=O)sc2c1)[C@H]1CC[C@H]2[C@@H]3[C@H](O)C[C@@H]4C[C@H](O)CC[C@]4(C)[C@H]3CC[C@]12C | 47 | 6.1 | 12
28 | C[C@H](CCC(=O)Nc1ccc(S(N)(=O)=O)cc1I)[C@H]1CC[C@H]2[C@@H]3CC[C@@H]4C[C@H](O)CC[C@]4(C)[C@H]3C[C@H](O)[C@]12C | 415 | 47 | 110
29 | C[C@H](CCC(=O)Nc1ccc(S(N)(=O)=O)cc1F)[C@H]1CC[C@H]2[C@@H]3[C@H](O)C[C@@H]4C[C@H](O)CC[C@]4(C)[C@H]3CC[C@]12C | 1050 | 50 | 128
